Measurements: US20210386367A1, “DEVICES AND SYSTEMS FOR GASTROINTESTINAL MICROBIOME DETECTION AND MANIPULATION” (Progenity, Inc., priority 2018, published 2021)
In brackets after ≈: the same amount, converted by molar mass. Several values for one entry are separate records, joined by “and”; a condition that tells them apart may be missing. Equal entries are not always repeated. Where two headings read alike, the source gives them in different places.

Tests used:
Clostridium spp. = assay: Agar dilution MIC, 10 clinical isolates; assay type: cell-based; details: 10 Clostridium spp. clinical isolates
[1] = system: Streptococcus spp. clinical isolates; assay: MIC distribution against clinical isolates; assay type: cell-based
Source text: (n=19 S. pyogenes, n=20 S. agalactiae and n=20 Viridans group Streptococcus) clinical isolates (μg/mL).
As used herein, “minimum inhibitory concentration” or “MIC” refers to the lowest concentration of an antimicrobial agent, for example, an antimicrobial agent as described herein, required to inhibit the growth of an organism. […] “MIC90” represents the MIC value at which ≥90% of the strains within a test population are inhibited; the 90th percentile.
(§1) Many susceptibility testing methods are known in the art and can be used as described herein (see, e.g., Jorgensen and Ferraro (2009) Clinical Infectious Diseases 49:1749-1755; and Maurer et al. (2017) Infectious Disease Reports 9:6839; the entire contents of each of the foregoing are incorporated herein by reference). For example, antimicrobial susceptibility can be determined using conventional culture based methods such as the broth or agar dilution test. In these dilution tests, the bacterial isolate of interest is inoculated onto different media that include serial dilutions of an antimicrobial agent, and incubated under appropriate conditions (e.g., overnight at 37° C.) to allow for growth to occur. Following the incubation period, the media is examined to determine bacterial growth. The lowest concentration of antibiotic that prevents growth represents the minimal inhibitory concentration (MIC). Broth dilution tests can be miniaturized and mechanized allowing for reproducibility and high throughput.

[2] = system: Enterococcus faecalis clinical isolates; assay: MIC distribution against clinical isolates; assay type: cell-based
Source text: (§2) As used herein, “minimum inhibitory concentration” or “MIC” refers to the lowest concentration of an antimicrobial agent, for example, an antimicrobial agent as described herein, required to inhibit the growth of an organism.
as §1

[3] = system: Staphylococcus aureus clinical isolates; assay: MIC distribution against clinical isolates; assay type: cell-based; details: 50 S. aureus isolates
Source text: as §2, §1

B. ovatus MMX 3503 = assay: Broth microdilution MIC (time-kill study); assay type: cell-based, Bacteroides ovatus; details: B. ovatus MMX 3504 (so in the source)
[4] = MIC 0.008 μg/mL, 54 Streptococcus spp. isolates
[5] = MIC 1 μg/mL, 54 Streptococcus spp. isolates
[6] = MIC ≤0.004 μg/mL, 54 Streptococcus spp. isolates
[7] = MIC 1 μg/mL, 50 E. faecalis isolates
[8] = MIC 2 μg/mL, 50 E. faecalis isolates
[9] = MIC 4 μg/mL, 50 E. faecalis isolates
[10] = MIC 8 μg/mL, 50 E. faecalis isolates
[11] = MIC 16 μg/mL, 50 E. faecalis isolates
[12] = MIC >64 μg/mL, 50 E. faecalis isolates
[13] = MIC […], 50 E. faecalis isolates
[14] = MIC 0.015 μg/mL, 54 Streptococcus spp. isolates
[15] = MIC 0.03 μg/mL, 54 Streptococcus spp. isolates
[16] = MIC 0.06 μg/mL, 54 Streptococcus spp. isolates
[17] = MIC 2 μg/mL, 54 Streptococcus spp. isolates
[18] = MIC 4 μg/mL, 54 Streptococcus spp. isolates
[19] = MIC >32 μg/mL, 50 E. faecalis isolates
[20] = MIC 0.06 μg/mL, 50 E. faecalis isolates
[21] = MIC 0.5 μg/mL, 50 E. faecalis isolates
[22] = MIC >8 μg/mL, 50 E. faecalis isolates
[23] = MIC 0.5 μg/mL, 54 Streptococcus spp. isolates
[24] = MIC 8 μg/mL, 54 Streptococcus spp. isolates

With `Cc1ncc([N+](=O)[O-])n1CCO` [MTZ] the “% S” value (Clostridium spp.) was 100%, the MIC50 (Clostridium spp.) was 1 µg/mL (≈ 5.84 µM) and the MIC90 (Clostridium spp.) was 1 µg/mL (≈ 5.84 µM). It also gave an MIC range (Clostridium spp.) of 0.12 to 2 µg/mL and a Mode (Clostridium spp.; modal MIC) of 1 µg/mL.
For Penicillin, the “Cumulative percentage of isolates inhibited at MIC” value [1, 4] was 35.2%, the “Number of test isolates at MIC” value [1, 4] was 9 and the “Cumulative percentage of isolates inhibited at MIC” value [1, 5] was 100.0%. The “Cumulative percentage of isolates inhibited at MIC” value [1, 6] was 18.5% and the “Number of test isolates at MIC” value [1, 6] was 10.
In the case of “piperacillin/tazobactam [piperacillin-tazobactam]”, the “Cumulative percentage of isolates inhibited at MIC” value [2, 7] is reported as 10.0%, the “Number of test isolates at MIC” value [2, 7] is reported as 4 and the “Cumulative percentage of isolates inhibited at MIC” value [2, 8] is reported as 32.0%. The “Number of test isolates at MIC” value [2, 8] was 11, the “Cumulative percentage of isolates inhibited at MIC” value [2, 9] was 70.0% and the “Number of test isolates at MIC” value [2, 9] was 19. For the same compound, the “Cumulative percentage of isolates inhibited at MIC” value [2, 10] was 90.0%, the “Number of test isolates at MIC” value [2, 10] was 10 and the “Cumulative percentage of isolates inhibited at MIC” value [2, 11] was 98.0%. For the same compound, the “Number of test isolates at MIC” value [2, 11] was 4, the “Cumulative percentage of isolates inhibited at MIC” value [2, 12] was 100.0% and the “Number of test isolates at MIC” value [2, 12] was 1. For the same compound, the “Cumulative percentage of isolates inhibited at MIC” value [2, 13] was 2.0%, the “Number of test isolates at MIC” value [2, 13] was 1 and the “Cumulative percentage of isolates inhibited at MIC” value ([3]; MIC 0.5 μg/mL) was 6.0%. The “Number of test isolates at MIC” value ([3]; MIC 0.5 μg/mL) was 3, the “Cumulative percentage of isolates inhibited at MIC” value ([3]; MIC 1 μg/mL) was 24.0% and the “Number of test isolates at MIC” value ([3]; MIC 1 μg/mL) was 9. For the same compound, the “Cumulative percentage of isolates inhibited at MIC” value ([3]; MIC 2 μg/mL) was 42.0%, the “Number of test isolates at MIC” value ([3]; MIC 2 μg/mL) was 9 and the “Cumulative percentage of isolates inhibited at MIC” value ([3]; MIC 4 μg/mL) was 46.0%. The “Number of test isolates at MIC” value ([3]; MIC 4 μg/mL) was 2, the “Cumulative percentage of isolates inhibited at MIC” value ([3]; MIC 8 μg/mL) was 52.0% and the “Number of test isolates at MIC” value ([3]; MIC 8 μg/mL) was 3. The “Cumulative percentage of isolates inhibited at MIC” value ([3]; MIC 16 μg/mL) was 54.0%, the “Number of test isolates at MIC” value ([3]; MIC 16 μg/mL) was 1 and the “Cumulative percentage of isolates inhibited at MIC” value ([3]; MIC 32 μg/mL) was 66.0%. The “Number of test isolates at MIC” value ([3]; MIC 32 μg/mL) was 6, the “Cumulative percentage of isolates inhibited at MIC” value ([3]; MIC 64 μg/mL) was 92.0% and the “Number of test isolates at MIC” value ([3]; MIC 64 μg/mL) was 13. For the same compound, the “Cumulative percentage of isolates inhibited at MIC” value ([3]; MIC >64 μg/mL) was 100.0%, the “Number of test isolates at MIC” value ([3]; MIC >64 μg/mL) was 4 and the “Cumulative percentage of isolates inhibited at MIC” value [1, 14] was 1.9%. The “Number of test isolates at MIC” value [1, 14] was 1, the “Cumulative percentage of isolates inhibited at MIC” value [1, 15] was 14.8% and the “Number of test isolates at MIC” value [1, 15] was 7. For the same compound, the “Cumulative percentage of isolates inhibited at MIC” value [1, 16] was 44.4%, the “Number of test isolates at MIC” value [1, 16] was 16 and the “Cumulative percentage of isolates inhibited at MIC” value [1, 5] was 90.7%. The “Number of test isolates at MIC” value [1, 5] was 1, the “Cumulative percentage of isolates inhibited at MIC” value [1, 17] was 94.4% and the “Number of test isolates at MIC” value [1, 17] was 2. For the same compound, the “Cumulative percentage of isolates inhibited at MIC” value [1, 18] was 100.0%, the “Number of test isolates at MIC” value [1, 18] was 3 and the MIC (B. ovatus MMX 3503) was over 16 µg/mL.
With `CN[C@H](CC(C)C)C(=O)N[C@H]1C(=O)N[C@@H](CC(N)=O)C(=O)N[C@H]2C(=O)N[C@H]3C(=O)N[C@H](C(=O)N[C@H](C(=O)O)c4cc(O)cc(O)c4-c4cc3ccc4O)[C@H](O)c3ccc(c(Cl)c3)Oc3cc2cc(c3O[C@@H]2O[C@H](CO)[C@@H](O)[C@H](O)[C@H]2O[C@H]2C[C@](C)(N)[C@H](O)[C@H](C)O2)Oc2ccc(cc2Cl)[C@H]1O` [vancomycin, Vancomycin] the “Cumulative percentage of isolates inhibited at MIC” value [2, 19] was 100.0%, the “Number of test isolates at MIC” value [2, 19] was 13 and the “Cumulative percentage of isolates inhibited at MIC” value ([2]; listed as VAN) was 48.0% and 64.0% and 72.0% and 74.0%. For the same compound, the “Cumulative percentage of isolates inhibited at MIC” value ([3]; MIC 1 μg/mL) was 100.0%, the “Cumulative percentage of isolates inhibited at MIC” value [1, 5] was 100.0% and the “Cumulative percentage of isolates inhibited at MIC” value ([1]; listed as VAN) was 50.0% and 96.3%. It also gave an MIC (B. ovatus MMX 3503; Bacteroides ovatus, MMX3503, read-out: MIC) of over 16 µg/mL.
For `COc1c(N2C[C@@H]3CCCN[C@@H]3C2)c(F)cc2c(=O)c(C(=O)O)cn(C3CC3)c12` [moxifloxacin], the “Cumulative percentage of isolates inhibited at MIC” value [2, 20] was 2.0%, the “Number of test isolates at MIC” value [2, 20] was 1 and the “Cumulative percentage of isolates inhibited at MIC” value [2, 21] was 52.0%. The “Number of test isolates at MIC” value [2, 21] was 4, the “Cumulative percentage of isolates inhibited at MIC” value [2, 8] was 54.0% and the “Number of test isolates at MIC” value [2, 8] was 1. The “Cumulative percentage of isolates inhibited at MIC” value [2, 9] was 56.0%, the “Number of test isolates at MIC” value [2, 9] was 1 and the “Cumulative percentage of isolates inhibited at MIC” value [2, 10] was 66.0%. The “Number of test isolates at MIC” value [2, 10] was 5, the “Cumulative percentage of isolates inhibited at MIC” value [2, 22] was 100.0% and the “Number of test isolates at MIC” value [2, 22] was 17. The “Cumulative percentage of isolates inhibited at MIC” value ([3]; MIC 0.015 μg/mL) was 14.0%, the “Number of test isolates at MIC” value ([3]; MIC 0.015 μg/mL) was 7 and the “Cumulative percentage of isolates inhibited at MIC” value ([3]; MIC 0.03 μg/mL) was 30.0%. The “Number of test isolates at MIC” value ([3]; MIC 0.03 μg/mL) was 8, the “Cumulative percentage of isolates inhibited at MIC” value ([3]; MIC 0.06 μg/mL) was 48.0% and the “Number of test isolates at MIC” value ([3]; MIC 0.06 μg/mL) was 9. The “Number of test isolates at MIC” value ([3]; MIC 0.5 μg/mL) was 4, the “Cumulative percentage of isolates inhibited at MIC” value ([3]; MIC 1 μg/mL) was 84.0% and the “Number of test isolates at MIC” value ([3]; MIC 1 μg/mL) was 12. The “Cumulative percentage of isolates inhibited at MIC” value ([3]; MIC 2 μg/mL) was 94.0%, the “Number of test isolates at MIC” value ([3]; MIC 2 μg/mL) was 5 and the “Cumulative percentage of isolates inhibited at MIC” value ([3]; MIC 4 μg/mL) was 96.0%. For the same compound, the “Number of test isolates at MIC” value ([3]; MIC 4 μg/mL) was 1, the “Cumulative percentage of isolates inhibited at MIC” value ([3]; MIC 8 μg/mL) was 98.0% and the “Number of test isolates at MIC” value ([3]; MIC 8 μg/mL) was 1. The “Cumulative percentage of isolates inhibited at MIC” value ([3]; MIC >8 μg/mL) was 100.0%, the “Number of test isolates at MIC” value ([3]; MIC >8 μg/mL) was 1 and the “Number of test isolates at MIC” value ([3]; MIC […]) was 1. The “Cumulative percentage of isolates inhibited at MIC” value [1, 16] was 24.1%, the “Number of test isolates at MIC” value [1, 16] was 13 and the “Cumulative percentage of isolates inhibited at MIC” value [1, 23] was 90.7%. For the same compound, the “Number of test isolates at MIC” value [1, 23] was 1, the “Cumulative percentage of isolates inhibited at MIC” value [1, 17] was 94.4% and the “Number of test isolates at MIC” value [1, 17] was 2. The “Cumulative percentage of isolates inhibited at MIC” value [1, 18] was 98.1%, the “Number of test isolates at MIC” value [1, 18] was 2 and the “Cumulative percentage of isolates inhibited at MIC” value [1, 24] was 100.0%. For the same compound, the “Number of test isolates at MIC” value [1, 24] was 1.
